Assay [1] relates to T-cell line. The assay is described as follows: Effect on PMA/ION-stimulated T-cell expression of the type 1 cytokine,IL-5 was determined in cell free supernatants by ELISA. Format: functional, cell-based. The note with it: Homo sapiens.
Assay [2] concerns T-cell line. Description: Effect on PMA/ION-stimulated T-cell expression of the type 1 cytokine,IL-2 was determined in cell free supernatants by ELISA. The class given is functional, cell-based. The following applies: Homo sapiens.
Assay [3] relates to T-cell line. The assay is described as follows: Effect (10 uM) on PMA/ION-stimulated T-cell expression of the type 2 cytokine, IL-4 was determined in cell free supernatants by ELISA. The class given is functional, cell-based. The note with it: Homo sapiens.
Assay [4] relates to T-cell line. Description: Effect on PMA/ION-stimulated T-cell expression of the type 1 cytokine,TNF-alpha was determined in cell free supernatants by ELISA. The class given is functional, cell-based. The note with it: Homo sapiens.
Assay [5] concerns T-cell line. Description: Effect at 10 uM on PMA/ION-stimulated T-cell expression of the type 1 cytokine IFNgamma, determined in cell free supernatants by ELISA. Format: functional, cell-based. The note with it: Homo sapiens.
Assay [6] concerns T-cell line. Description: Effect on PMA/ION-stimulated T-cell expression of the type 1 cytokine, IFNgamma was determined in cell free supernatants by ELISA. Format: functional, cell-based. The following applies: Homo sapiens.
The subject of assay [7] is T-cell line. The assay is described as follows: Effect (10 uM) on PMA/ION-stimulated T-cell expression of the type 1 cytokine IFN gamma, which was determined in cell free supernatants by ELISA. The note with it: Homo sapiens. The class given is functional, cell-based.
Assay [8] concerns T-cell line. Description: Effect (10 uM) on PMA/ION-stimulated T-cell expression of the type 2 cytokine IL-4, which was determined in cell free supernatants by ELISA. The following applies: Homo sapiens. The class given is functional, cell-based.
Assay [9] deals with T-cell line. Description: Effect at 10 uM on PMA/ION-stimulated T-cell expression of the type 2 cytokine IL-4, determined in cell free supernatants by ELISA. The class given is functional, cell-based. The following applies: Homo sapiens.
The test system of assay [10] is T-cell line. The assay is described as follows: Effect (10 uM) on PMA/ION-stimulated T-cell expression of the type 1 cytokine, IL-5 was determined in cell free supernatants by ELISA. The class given is functional, cell-based. The note with it: Homo sapiens.
For assay [11], the system named is T-cell line. The assay is described as follows: Effect (10 uM) on PMA/ION-stimulated T-cell expression of the type 1 cytokine,TNF-alpha was determined in cell free supernatants by ELISA. The note with it: Homo sapiens. Format: functional, cell-based.
In assay [12] the test system is T-cell line. Description: Effect (10 uM) on PMA/ION-stimulated T-cell expression of the type 1 cytokine,IL-2 was determined in cell free supernatants by ELISA. Format: functional, cell-based. The following applies: Homo sapiens.
The test system of assay [13] is T-cell line. Description: (§1) Effect (10 uM) on PMA/ION-stimulated T-cell expression of the type 1 cytokine, IFNgamma was determined in cell free supernatants by ELISA. The class given is functional, Homo sapiens.
The test system of assay [14] is T-cell line. The description is as §1. The class given is functional, cell-based. The following applies: Homo sapiens.
Assay [15] has as its system T-cell line. The assay is described as follows: Effect (10 uM) on PMA/ION-stimulated T-cell expression of the type 1 cytokine IFNgamma, which was determined in cell free supernatants by ELISA. The class given is functional, cell-based. The note with it: Homo sapiens.
For assay [16], the system named is T-cell line. The assay is described as follows: Effect (10 uM) on PMA/ION-stimulated T-cell expression of the type 1 cytokine TNF-alpha, which was determined in cell free supernatants by ELISA. The note with it: Homo sapiens. Format: functional, cell-based.
Assay [17] has as its system T-cell line. Description: Effect (10 uM) on PMA/ION-stimulated T-cell expression of the type 1 cytokine IL-2, which was determined in cell free supernatants by ELISA. The class given is functional, cell-based. The following applies: Homo sapiens.
Assay [18] relates to T-cell line. Description: Effect (10 uM) on PMA/ION-stimulated T-cell expression of the type 2 cytokine IL-5, which was determined in cell free supernatants by ELISA. The note with it: Homo sapiens. The class given is functional, cell-based.

Bounds are passed on as bounds.

Take `CCCCCCCCCCCCC(=O)O[C@@H]1[C@@H](C)[C@@]2(O)[C@@H](C=C(CO)C[C@]3(O)C(=O)C(C)=C[C@@H]23)[C@@H]2C(C)(C)[C@]12OC(C)=O.C[C@H](CCC(=O)O)C[C@H](C)C[C@H](C)/C(O)=C/C(=O)[C@H](C)C[C@H](C)C/C=C/[C@@H](C)[C@@H](O)[C@@H](C)[C@@H](O)C[C@@H]1CC[C@@](C)([C@H]2CC[C@@](C)([C@@H](C)O)O2)O1`: the Concentration in assay [1] was 93 pg/mL; in assay [2], 27700 pg/mL; in [3], 162 pg/mL; in assay [4] it was 2150 pg/mL; in assay [5], 10400 pg/mL; in [6] it was 10400 pg/mL.
Consider `N/C(=N\O)c1cn(C2CCC(CO)O2)c2ncnc(O)c12` (single isomer, unassigned; (+)), for which the results for the Concentration in assay [7] and in assay [8] were 11200 pg/mL and 152 pg/mL, respectively.
Take `N/C(=N\O)c1cn([C@@H]2O[C@H](CO)[C@@H](O)[C@@H]2O)c2nc[nH]c(=O)c12`: the Concentration in assay [7] is 10400 pg/mL; in assay [8], 132 pg/mL.
Consider `NC(=S)c1cn(C2O[C@H](CO)[C@@H](O)[C@H]2O)c2ncnc(O)c12` (stereo not given in full), for which the Concentration in [1] stood at 59 pg/mL; in [2], 23000 pg/mL; in [9], 176 pg/mL; in [4], 2220 pg/mL; in assay [6] it was 7480 pg/mL.
As for `C[C@]1(CO)OC(n2cc(C#N)c3c(O)ncnc32)[C@H](O)[C@@H]1O` (single isomer, unassigned; (+)), the Concentration in assay [9] amounted to 147 pg/mL; in assay [5], 9030 pg/mL.
For `C[C@H](O)[C@H]1OC(n2cc(C#N)c3c(O)ncnc32)[C@H](O)[C@@H]1O` (single isomer, unassigned; (+)) the same measures were 146 pg/mL and 10900 pg/mL.
For `C[C@H]1OC(n2cc(C#N)c3c(O)ncnc32)[C@H](O)[C@@H]1O` (single isomer, unassigned; (+)) the same measures were 147 pg/mL and 9140 pg/mL.
As to `N=C(N)C1=CN([C@H]2C[C@H](O)[C@@H](CO)O2)C2=NC=NC(=O)C12` (single isomer, unassigned; (+)), the figures for the Concentration in assay [7] and in assay [8] were 14700 pg/mL and 258 pg/mL, respectively.
As to `NCc1cn([C@@H]2O[C@H](CO)[C@@H](O)[C@H]2O)c2nc[nH]c(=O)c12`, the Concentration is 125 pg/mL in assay [9] and 9340 pg/mL in assay [5].
On to `N=C(N)c1cn(C2CCC(CO)O2)c2ncnc(O)c12` (single isomer, unassigned; (+)), for which the figures for the Concentration in assay [7] and in assay [8] were 13300 pg/mL and 234 pg/mL, respectively.
`N#CC1=CN([C@H]2C[C@H](O)[C@@H](CO)O2)C2=NC=NC(=O)C12` (single isomer, unassigned; (+)): the Concentration in assay [9] was found to be 194 pg/mL; in assay [5], 11900 pg/mL.
For `C[C@H]1OC(n2cc(C(=N)N)c3c(O)ncnc32)[C@H](O)[C@@H]1O` (single isomer, unassigned; (+)) the same measures were 152 pg/mL and 1310 pg/mL.
Turning to `N/C(=N\O)c1cn([C@H]2O[C@@H](CO)[C@H](O)[C@@H]2O)c2nc[nH]c(=O)c12`, the Concentration amounted to 9660 pg/mL in assay [7] and 142 pg/mL in assay [8].
Consider `N=C(N)c1cn([C@@H]2O[C@H](CO)[C@@H](O)[C@H]2O)c2nc[nH]c(=O)c12`, for which the Concentration in assay [10] is less than 127 pg/mL; in assay [11] it was less than 968 pg/mL; in [9] it was less than 557 pg/mL; in assay [12], less than 12700 pg/mL. Further, the IFN gamma concentration in assay [13] was less than 5919 pg/mL.
As to `C[C@@H](O)[C@H]1OC(n2cc(C(=N)N)c3c(O)ncnc32)[C@H](O)[C@@H]1O` (single isomer, unassigned; (+)), the Concentration came to 159 pg/mL in [9] and 12100 pg/mL in [5].
Turning to `C[C@]1(CO)OC(n2cc(C(=N)N)c3c(O)ncnc32)[C@H](O)[C@@H]1O` (single isomer, unassigned; (+)), the Concentration came to 9550 pg/mL in assay [7] and 144 pg/mL in assay [8].
Take `NCc1cn([C@@H]2O[C@H](CO)[C@@H](O)[C@@H]2O)c2nc[nH]c(=O)c12`: the Concentration in [9] worked out at 142 pg/mL; in assay [5], 10800 pg/mL.
For `NC(=O)c1cn(C2O[C@H](CO)[C@@H](O)[C@H]2O)c2ncnc(O)c12` (single isomer, unassigned; (+)), the Concentration is 67 pg/mL in assay [10]; 2170 pg/mL in assay [11]; 183 pg/mL in assay [9]; 24400 pg/mL in assay [12]; 9140 pg/mL in assay [14].
Turning to `N=C(NN)c1cn([C@@H]2O[C@H](CO)[C@@H](O)[C@@H]2O)c2nc[nH]c(=O)c12`, the Concentration in assay [9] worked out at 117 pg/mL; in assay [5], 9860 pg/mL.
For `C[C@H](O)[C@H]1OC(n2cc(C(=N)N)c3c(O)ncnc32)[C@H](O)[C@@H]1O` (single isomer, unassigned; (+)) the same measures were 146 pg/mL and 10700 pg/mL.
With `N=C(NN)c1cn([C@@H]2O[C@H](CO)[C@@H](O)[C@H]2O)c2nc[nH]c(=O)c12`, the figures for the Concentration in [9] and in [5] were 207 pg/mL and 11900 pg/mL, respectively.
For `C[C@@H](O)[C@H]1OC(n2cc(C#N)c3c(O)ncnc32)[C@H](O)[C@@H]1O` (stereo not given in full) the same measures were 160 pg/mL and 13300 pg/mL.
In the case of `C[C@@H](O)[C@H]1OC(n2cc(C(=N)NO)c3c(O)ncnc32)[C@H](O)[C@@H]1O` (stereo not given in full), the Concentration in assay [7] is 12300 pg/mL; in [8], 186 pg/mL.
`C[C@H]1OC(n2cc(C(=N)NO)c3c(O)ncnc32)[C@H](O)[C@@H]1O` (single isomer, unassigned; (+)): the figures for the Concentration in assay [7] and in [8] were 10600 pg/mL and 149 pg/mL, respectively.
In the case of `C[C@H](O)[C@H]1OC(n2cc(C(=N)NO)c3c(O)ncnc32)[C@H](O)[C@@H]1O` (single isomer, unassigned; (+)), the Concentration in [7] came out at 11400 pg/mL; in assay [8], 162 pg/mL.
On to `N=C(N)c1cn([C@@H]2O[C@H](CO)[C@@H](O)[C@@H]2O)c2nc[nH]c(=O)c12`, for which the Concentration in assay [9] came out at 131 pg/mL; in assay [5], 7790 pg/mL.
As for `N/C(=N\O)c1cn([C@@H]2O[C@H](CO)[C@@H](O)[C@H]2O)c2nc[nH]c(=O)c12`, the Concentration in [15] is 7270 pg/mL; in [16], 1590 pg/mL; in assay [8], 236 pg/mL; in assay [17] it was 18000 pg/mL; in [18] it was 73 pg/mL.

(Values after ChEMBL document CHEMBL1133764, “Synthesis and cytokine modulation properties of pyrrolo[2, 3-d]-4-pyrimidone nucleosides” (2000).)
